“Also recorded” adds a separate entry of the source.
Tests used:
striatal DA content = assay: Electrochemical detection (HPLC-EC) of striatal DA content; format: in vivo, rat
Procedure: Measurement of dopamine content: Coronal brain slices were collected and 2 mm steel biopsy punches were used to sample striatal tissue. Samples from left and right hemispheres were collected and immediately flash frozen on an aluminum pan at −70° C., as published (Flores et al., 2014). Samples massed at 2.5±0.5 mg and were then homogenized in dilute perchloric acid. High performance liquid chromatography with electrochemical detection (HPLC-EC) was used to quantify DA.

[1] = test system: unilaterally 6-OHDA-lesioned LID rats; assay: L-DOPA-induced AIMs in the preclinical rat LID model (10 hr ketamine 'infusion' paradigm or acute injection); conditions: cohort #1; for L-DOPA-induced contralateral locomotor behavior / ipsiversive turning behavior (worsening of the Parkinsonism): all tested doses; for L-DOPA-induced contralateral locomotor behavior: 10 hr 'infusion'; for ipsiversive turning behavior (worsening of the Parkinsonism): in the presence of L-DOPA
[2] = test system: unilateral 6-hydroxydopamine (6-OHDA)-lesioned rats; assay: Local-field activity recordings in M1 and DLS, rodent Parkinson's disease model; format: in vivo, rat; conditions: 20 mg/kg, 5 i.p. injections every 2 hours
Procedure: Using a 10-hour racemic ketamine paradigm (5 i.p. injections every 2 hours), simultaneous measurement of local-field activity in multiple brain structures in three awake and behaving unilateral 6-hydroxydopamine (6-OHDA)-lesioned rats, a common model of Parkinson's disease. Recordings were acquired from a 64 channel fixed electrode array. Average response across 3 animals. Power spectrogram from a 10 hour session created by averaging spectra acquired. Vertical lines indicate ketamine injection times.

[3] = test system: unilaterally 6-hydroxydopamine (6-OHDA)-lesioned PD rats; assay: Development of LID under once-weekly 10-hour infusion paradigm (LAO AIMs); format: in vivo, rat; conditions: n=9 per group; for animals that did not develop any dyskinesia or only very subtle dyskinesia: 6 and 12 mg/kg L-DOPA periods
Procedure: Unilaterally 6-hydroxydopamine (6-OHDA)-lesioned PD rats were injected daily with L-DOPA (days 0-13: 6 mg/kg; days 14-28: 12 mg/kg; i.p.) to induce dyskinesia and tested for limb, axial and oral (LAO) abnormal involuntary movements (AIMs) twice a week for 3 hours by blinded investigators.

[4] = test system: awake and behaving naive rats; assay: Local-field activity recordings in motor cortex (M1) and dorsolateral striatum (DLS), naive rats; format: in vivo, rat; conditions: 20 mg/kg, 5 i.p. injections every 2 hours
Procedure: Using the 10-hour racemic ketamine paradigm (5 i.p. injections every 2 hours), simultaneous local-field activity in multiple brain structures in two awake and behaving naive rats was measured. Recordings were acquired from a 64 channel fixed electrode array. Average response across 2 animals and 5 sessions was obtained.

patients with PD = assay: Low-dose ketamine infusion in PD patient case studies (retrospective chart review); format: in vivo, human
Procedure: We report on five cases of low-dose ketamine infusion in patients with PD identified by a retrospective chart review (Table 1). Ketamine was indicated for a variety of co-morbid conditions. The level of documentation of PD and LID symptoms pre and post-infusion was variable, but in many cases included standardized clinical rating scales collected by Movement Disorder specialists. […] Patients were treated in the intensive care unit using a protocol developed by one of the authors (ME) for treatment of intractable headache that specified titration of ketamine to a target rate of 0.15 mg/kg/hr for a 72 hr period.

[5] = test system: tyrosine hydroxylase (TH); assay: Semi-quantitative western analysis of striatal tyrosine hydroxylase expression; format: in vivo, rat; conditions: unilateral lesion; TH normalized to β-actin; n=15
Procedure: Western analysis of tyrosine hydroxylase (TH) content: After the tissue punch, described above, the remaining striata from left and right hemispheres were immediately flash frozen and stored at —70 ° C. Total protein was prepared and semi-quantitative western analysis was conducted as described (Flores et al., 2014; Yue et al., 2014) with 3 modifications. 30 μg of protein/sample was loaded and analyzed on the same blot. Secondary antibody dilution for β-actin: 1:10,000. Images were analyzed with the G:Box XR5 Chemi system (Syngene, Frederick, Md.) using GeneSys v. 1.4.0.0.

[6] = DLS and M1, after each injection

## CNC1(c2ccccc2Cl)CCCCC1=O (racemic) [ketamine, (RS)-2-(2-Chlorophenyl)-2-(methylamino)cyclohexanone]
Striatal DA content; acute i.p. 20 mg/kg vs. saline, 30 min before euthanasia
  striatal [DA]: unchanged
[1]; 10 mg/kg ketamine-'infusion' given after the other treatments (test for sensitization)
  change in the already-reduced AIMs score: No change
[1]; 20 mg/kg ketamine-'infusion'
  persistent reduction of AIMs scores lasted (post-injection): at least 55 days
[1]
  L-DOPA-induced contralateral locomotor behavior: did not significantly change
  ipsiversive turning behavior (worsening of the Parkinsonism): did not acutely induce
[1]; listed as Ketamine
  L-DOPA-induced contralateral locomotor behavior: did not have a significant effect
  ipsiversive turning behavior (worsening of the Parkinsonism): did not induce ipsilateral rotations
[1]; low-dose ketamine given for a 10 hr period, 5-20 mg/kg
  anti-dyskinetic effect (LID / AIMs): dose-dependent long-term anti-dyskinetic effect; also recorded: Long-term dose-dependent reduction
[1]; n=5, p<0.05
  LAO-AIMs score, pre-K (20 mg/kg) vs last testing session: significantly reduced
[2]; [6]
  gamma band activity (40-60 Hz): clear increase
  high-frequency activity (120-140 Hz): clear increase
[2]; following each injection, n=15 sessions across 3 animals
  beta-gamma cross-frequency coupling (CFC) in the DLS: reduced
[3]; 10-hours infusion paradigm once a week, daily L-DOPA 6 then 12 mg/kg i.p.
  reduction of mean LAO AIMs scores: 50%
[3]
  animals that did not develop any dyskinesia or only very subtle dyskinesia: 4 of 9
[4]; M1-DLS
  coherence in the HFO frequency band: increased
[4]; M1 and DLS, after each injection
  high-frequency activity (120-140 Hz): clear increase
[4]; n=5 sessions
  correlation (r) of coherence in HFO and beta bands: −0.65
[4]; with successive injections
  coherence in the beta band: decreased
Patients with PD; case #1, 72 hr low-dose ketamine infusion
  UPDRS Dyskinesia score (sum of items 32-34): reduced
Patients with PD; case #1, at second infusion 3 years later despite increase in L-DOPA dose
  dyskinesia: free of dyskinesia
Patients with PD; case #1, during and after the infusion, carbidopa/L-DOPA dosages unchanged
  dyskinesia: improved markedly
Patients with PD; case #1, during second infusion, tremor had returned 3 weeks later
  severe tremor: resolved acutely
Patients with PD; case #1, patient diary, 72 hr low-dose ketamine infusion
  % dyskinesia on time: reduced
Patients with PD; case #1, weeks 2-4 post-K
  LID: completely resolved
Patients with PD; case #2, low-dose ketamine infusion
  dyskinesia: dramatic reduction
Patients with PD; case #3
  depression: dramatically improved
Patients with PD; case #3, during the infusion
  motor symptoms: acutely improved
Patients with PD; case #3, following the infusion
  dyskinesia: completely subsided
Patients with PD; case #4
  headache: improved
Patients with PD; cases #4 and 5 (STN DBS-treated)
  effect on motor symptoms: little effect
Patients with PD; five PD case reports overall
  tolerability and safety: excellent tolerability and safety

## NC12CC3CC(CC(C3)C1)C2 [amantadine]
Patients with PD; case #2, prior treatment, 200 mg daily
  LID: failed to improve

## CN[C@@]1(c2ccccc2Cl)CCCCC1=O [R-ketamine]
[3]
  animals that did not develop any dyskinesia or only very subtle dyskinesia: 1

## NCCc1cc(O)c(O)cc1O [6-OHDA, 6-hydroxydopamine]
[5]
  reduction of striatal TH expression in the lesioned side: 87%
Striatal DA content; unilateral lesion, lesioned vs unlesioned side
  reduction of striatal DA content in the lesioned side: > 95%

— patent US20230000797A1, “COMPOSITIONS AND METHODS FOR TREATING MOTOR DISORDERS” (ARIZONA BOARD OF REGENTS ON BEHALF OF THE UNIVERSITY OF …, priority 2015, published 2023)
